Experimental data as given in BindingDB's records for patent US20250059188 (Anaxis Pharma, 2025).
pKd: −log10 of the molar value.

Legend:
Experiment in all cases: In Vitro Assay
[1] = target: T1, Mixed lineage kinase domain-like protein (Homo sapiens, UniProt Q8NB16)
T1 sequence (Q8NB16 whole entry): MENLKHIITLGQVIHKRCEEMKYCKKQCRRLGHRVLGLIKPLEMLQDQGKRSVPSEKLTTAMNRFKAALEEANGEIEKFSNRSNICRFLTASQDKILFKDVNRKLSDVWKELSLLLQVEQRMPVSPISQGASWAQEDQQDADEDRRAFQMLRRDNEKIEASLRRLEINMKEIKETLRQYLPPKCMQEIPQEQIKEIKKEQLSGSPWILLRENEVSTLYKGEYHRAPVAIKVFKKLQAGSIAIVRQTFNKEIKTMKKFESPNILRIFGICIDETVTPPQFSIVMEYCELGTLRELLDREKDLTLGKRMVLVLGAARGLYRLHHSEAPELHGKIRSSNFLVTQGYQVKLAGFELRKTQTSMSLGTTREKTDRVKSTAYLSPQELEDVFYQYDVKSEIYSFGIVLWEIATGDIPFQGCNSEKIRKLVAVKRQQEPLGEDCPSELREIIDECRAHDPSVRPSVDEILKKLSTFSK
Description: (§1) For most assays, kinase-tagged T7 phage strains were grown in parallel in 24-well blocks in an E. coli host derived from the BL21 strain. E. coli were grown to log-phase and infected with T7 phage from a frozen stock (multiplicity of infection=0.4) and incubated with shaking at 32° C. until lysis (90-150 minutes). The lysates were centrifuged (6,000×g) and filtered (0.2 μm) to remove cell debris. The remaining kinases were produced in HEK-293 cells and subsequently tagged with DNA for qPCR detection. […] The liganded beads were blocked with excess biotin and washed with blocking buffer (SeaBlock (Pierce), 1% BSA, 0.05% Tween 20, 1 mM DTT) to remove unbound ligand and to reduce non-specific phage binding. […] All reactions were performed in polypropylene 384-well plates in a final volume of 20 μL. […] The kinase concentration in the eluates was measured by qPCR.

[2] = target: Receptor-interacting serine/threonine-protein kinase 3 (Homo sapiens, UniProt Q9Y572)
Sequence of Receptor-interacting serine/threonine-protein kinase 3 (Q9Y572 whole entry): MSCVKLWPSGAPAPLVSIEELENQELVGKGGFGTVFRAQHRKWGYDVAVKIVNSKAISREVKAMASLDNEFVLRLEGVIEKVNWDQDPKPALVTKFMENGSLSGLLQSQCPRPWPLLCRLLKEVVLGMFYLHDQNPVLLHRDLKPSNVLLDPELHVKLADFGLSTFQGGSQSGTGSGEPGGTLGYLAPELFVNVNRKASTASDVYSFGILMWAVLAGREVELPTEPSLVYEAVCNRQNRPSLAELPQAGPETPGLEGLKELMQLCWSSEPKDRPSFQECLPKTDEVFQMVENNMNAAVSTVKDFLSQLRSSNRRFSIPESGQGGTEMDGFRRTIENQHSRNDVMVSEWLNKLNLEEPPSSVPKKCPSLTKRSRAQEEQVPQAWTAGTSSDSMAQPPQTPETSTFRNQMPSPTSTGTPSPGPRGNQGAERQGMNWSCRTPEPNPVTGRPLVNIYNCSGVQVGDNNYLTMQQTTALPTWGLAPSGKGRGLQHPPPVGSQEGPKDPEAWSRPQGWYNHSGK
Description: as §1

[3] = target: T2, Receptor-interacting serine/threonine-protein kinase 1 (Homo sapiens, UniProt Q13546)
T2 sequence (Q13546 whole entry): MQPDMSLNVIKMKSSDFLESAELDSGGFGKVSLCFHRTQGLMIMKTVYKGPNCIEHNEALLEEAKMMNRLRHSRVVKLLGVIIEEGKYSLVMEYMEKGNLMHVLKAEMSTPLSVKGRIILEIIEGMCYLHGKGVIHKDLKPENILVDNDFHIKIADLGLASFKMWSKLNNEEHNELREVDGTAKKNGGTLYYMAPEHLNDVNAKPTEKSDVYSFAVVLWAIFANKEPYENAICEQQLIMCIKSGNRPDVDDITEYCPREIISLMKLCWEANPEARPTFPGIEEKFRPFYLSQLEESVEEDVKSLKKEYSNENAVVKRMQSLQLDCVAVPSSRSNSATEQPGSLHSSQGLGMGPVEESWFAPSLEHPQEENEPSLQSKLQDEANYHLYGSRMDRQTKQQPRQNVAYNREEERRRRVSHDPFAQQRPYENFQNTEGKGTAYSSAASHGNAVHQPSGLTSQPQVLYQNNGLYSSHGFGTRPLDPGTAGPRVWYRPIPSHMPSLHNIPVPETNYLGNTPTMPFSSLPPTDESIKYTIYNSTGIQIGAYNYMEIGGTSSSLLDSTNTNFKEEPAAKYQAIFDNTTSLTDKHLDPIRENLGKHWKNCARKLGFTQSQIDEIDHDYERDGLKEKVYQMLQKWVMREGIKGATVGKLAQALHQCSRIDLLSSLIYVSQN
Description: as §1

| Compound | pKd [1] | pKd [2] | pKd [3] |
| --- | --- | --- | --- |
| Cn1nc(-c2ccc(NS(=O)(=O)C(F)F)c(OCc3ccc(F)cc3)c2)c2c(N)ncc(-c3ccncc3)c21 [US20250059188, Compound 14] | > 9.00 | < 5.00 | < 5.00 |
| COc1ccc([C@H](C)Oc2cc(-c3nn(C)c4c(-c5cnn(C6CCOCC6)c5)cnc(N)c34)ccc2NS(=O)(=O)C(F)F)cc1 [US20250059188, Compound 129] | > 9.00 | < 5.00 | < 5.00 |

Results, then the compound that gave them:

| pKd [1] | pKd [2] | pKd [3] | Compound |
| --- | --- | --- | --- |
| > 9.00 | < 5.00 | < 5.00 | C[C@H](Oc1cc(C2C=NN3C=CN=C(N)C23)ccc1NS(=O)(=O)C(F)F)c1ccc(F)cc1 (some centres undefined) [US20250059188, Compound 22] |
| – | < 5.00 | < 5.00 | C[C@H](Oc1cc(-c2nn(C)c3c(-c4cnn(C5CCN(C)C(C(F)F)C5)c4)cnc(N)c23)ccc1NS(=O)(=O)C(F)F)c1ccc(F)cc1 (some centres undefined) [US20250059188, Compound 158] |
| > 9.00 | < 5.00 | < 5.00 | C[C@H](Oc1cc(-c2nn(C)c3c(-c4cnn(C5CCC(N(C)C)C5)c4)cnc(N)c23)ccc1NS(=O)(=O)C(F)F)c1ccc(F)cc1 (some centres undefined) [US20250059188, Compound 168] |
